Key:
[1] = system: E. coli; test: Bacterial killing by nasal lavage fluid, luminescence assay; assay type: cell-based; settings: increasing xylitol concentration (serial dilutions of 300 mM), 4 hours at 30° C.
Procedure: FIG. 4. Effect of modifying ionic strength and xylitol concentration of killing of E. coli by nasal lavage liquid. Nasal lavage liquid was diluted with increasing concentrations of NaCl (bottom X-axis) or xylitol (top X-axis). SEM are smaller than the symbol.
Nasal lavage fluid was collected from normal volunteers. A flexible catheter (18-gauge; Jelco, Tampa, Fla.) was inserted into each nostril and the area flushed four times with 4 ml of sterile water. Cells were removed by centrifugation and the fluid was filtered with a sequential 0.8/0.2 μm Supor Acrodisc PF (GelamnSciences, Ann Arbor, Mich.). To study the effect of xylitol on bacterial killing by endogenous antimicrobial factors, a luminescence assay was used in which E. coli express the genes from Photorhabdus luminescens (Travis, S. M., B. A. D. Conway, J. Zabner, J. J. Smith, N. N. Anderson, P. K. Singh, E. P. Greenberg, and M. J. Welsh. 1999. Activity of Abundant Antimicrobials of the Human Airway. Am. J. Respir. Cell. Mol. Biol. 20:872-879). As previously described, this assay reports bacterial viability. Briefly, bacteria were grown to exponential phase at 30° C., centrifuged, and resuspended in 20 mM potassium phosphate with 2% Lauria-Bertani medium. […] After incubation at 30° C. for 4 hours, luminescence was measured with a luminometer (MLX Luminometer; Dynex Technologies Inc.; Chantilly, Va.). […]

[2] = system: P. aeruginosa; test: Growth in carbon-starved M9 media (O.D.); assay type: cell-based; settings: M9 media supplemented at 100 mM
Procedure: (§1) FIGS. 5(A-G). […] A, B and C. Growth of P. aeruginosa (A), S. aureus, (B), and coagulase-negative Staphylococcus (C) were measured as O. D. M9 media alone is indicated by open triangle. Xylitol (closed circle), or succinate, mannitol, or sucrose (open circles), were added to M9 media at 100 mM as indicated. D. Nasal swabs were collected and cultured for 3 days in Lauria-Bertani media (open circles), in minimal M9 media (open squares), or in M9 media supplemented with 100 mM xylitol (closed circles). E, F and G. P. aeruginosa (E), S. aureus (F), and coagulase-negative Staphylococcus (G) were cultured in Lauria-Bertani media alone (open triangles), Lauria-Bertani media with 100 mM xylitol (closed circles), and Lauria-Bertani media containing tobramycin or levofloxacin (open circles).
(§2) To test the effect of xylitol on growth of different airway pathogens in a carbon-starved media, P. aeruginosa, S. aureus, and coagulase-negative Staphylococcus were grown overnight in Lauria-Bertani medium. The bacteria were then centrifuged and resuspended in M9 media containing either 100 mM succinate, mannitol, or sucrose, respectively, and grown overnight at 37° C. The bacteria were centrifuged and resuspended in M9 media alone. M9 media containing 100 mM xylitol, or 100 mM of the indicated metabolizable sugar, as positive control. The optical density (O.D.) was measured after 0, 1, 2, and 4 hours at 600 nm on a Beckman DU640 Spectrophotometer (Schaumburg, Ill.). To test the antibiotic effect of xylitol, P. aeruginosa, S. aureus, and coagulase-negative Staphylococcus were grown overnight in Lauria-Bertani medium. The bacteria were then centrifuged and resuspended in Lauria-Bertani media with and without 100 mM xylitol. As a positive control, antibiotics with specific activity to each of the bacteria were added to the media (40 μg/ml tobramycin or 40 μg/ml levofloxacin).

[3] = system: coagulase-negative Staphylococcus; test: Growth in carbon-starved M9 media (O.D.); assay type: cell-based; settings: M9 media supplemented at 100 mM
Procedure: as §1, §2

[4] = system: P. aeruginosa; test: Antibiotic effect in Lauria-Bertani (rich) media; assay type: cell-based; settings: Lauria-Bertani media with 100 mM xylitol
Procedure: (§3) FIGS. 5(A-G). Effect of xylitol on growth of different airway pathogens. A, B and C. Growth of P. aeruginosa (A), S. aureus, (B), and coagulase-negative Staphylococcus (C) were measured as O. D. M9 media alone is indicated by open triangle. Xylitol (closed circle), or succinate, mannitol, or sucrose (open circles), were added to M9 media at 100 mM as indicated. D. Nasal swabs were collected and cultured for 3 days in Lauria-Bertani media (open circles), in minimal M9 media (open squares), or in M9 media supplemented with 100 mM xylitol (closed circles). E, F and G. P. aeruginosa (E), S. aureus (F), and coagulase-negative Staphylococcus (G) were cultured in Lauria-Bertani media alone (open triangles), Lauria-Bertani media with 100 mM xylitol (closed circles), and Lauria-Bertani media containing tobramycin or levofloxacin (open circles).
as §2

[5] = system: S. aureus; test: Antibiotic effect in Lauria-Bertani (rich) media; assay type: cell-based; settings: Lauria-Bertani media with 100 mM xylitol
Procedure: as §3, §2

[6] = system: coagulase-negative Staphylococcus; test: Antibiotic effect in Lauria-Bertani (rich) media; assay type: cell-based; settings: Lauria-Bertani media with 100 mM xylitol
Procedure: as §3, §2

[7] = system: CF epithelia; test: Bacteria deposited into liquid covering CF epithelia; assay type: cell-based, human; settings: bacteria grew on untreated or saline-treated epithelia
[8] = cited from earlier work

Compound: OC[C@@H](O)[C@H](O)[C@@H](O)CO [xylitol]
- killing of E. coli by nasal lavage fluid [1]: not affected
- growth of P. aeruginosa [2]: no growth
- growth of coagulase-negative Staphylococcus [3]: failed to support growth
- inhibition of growth of P. aeruginosa [4]: did not inhibit the growth
- inhibition of growth of S. aureus [5]: did not inhibit the growth
- inhibition of growth of coagulase-negative Staphylococcus [6]: did not inhibit the growth
- fate of bacteria deposited into xylitol-containing liquid covering CF epithelia [7]: the bacteria were killed
- toxicity observed after intravenous delivery ([8]; 5-50% solution in water at 1-4.5 g/Kg intravenously, changes reversible): increases in serum uric acid and elevated liver enzymes
- adverse effect in children ([8]; delivered in large amounts): osmotic diarrhea

From patent US6716819B2, “Use of xylitol to reduce ionic strength and activate endogenous antimicrobials for prevention and treatment of infections” (University of Iowa Research Foundation, priority 2000, dated 2004)
